{"source": "paper PMC5711939", "about": "“The rumen microbiome: an underexplored resource for novel antimicrobial discovery” (NPJ Biofilms and Microbiomes, 2017)", "key": {"MRSA ATCC 33591": {"tested_on": "MRSA ATCC 33591", "test": "Anti-biofilm activity, 96-well crystal violet model", "type": "cell-based, Staphylococcus aureus", "conditions": "0.25× MIC (data not shown)", "protocol": "The effectiveness of Lynronne-1, Lynronne-2, and Lynronne-3 to prevent (a) biofilm attachment and (b) disrupt established biofilms was measured using a 96-well biofilm model.[50] […] The biofilms were washed in PBS to remove planktonic cells, fixed with methanol, stained with 0.5% (w/v) crystal violet and re-solubilized with 33% (v/v) acetic acid. The optical density of biofilms was measured at 570 nm."}, "MRSA USA300 cells": {"tested_on": "MRSA USA300 cells", "test": "Transmission electron microscopy of treated cells", "type": "cell-based, Staphylococcus aureus", "conditions": "3× MIC for 1 h", "description": "Effects of AMPs on bacterial cell morphology was investigated using transmission electron microscopy as described by Huws et al.[49] […] Cells were post-fixed with 1% osmium tetroxide (w/v), stained with 2% (w/v) uranyl acetate and Reynold’s lead citrate and observed using a JEOL JEM1010 transmission electron microscope (JEOL Ltd, Tokyo, Japan) at 80 kV."}}, "note": "Ends that are not written are not given here."}
{"substance": "HLRRINKLLTRIGLYRHAFG-NH2 [Lynronne-2]", "values": [{"measurement": "Biofilm attachment", "setting": "MRSA ATCC 33591", "result": "effective"}, {"measurement": "Changes in cell morphology (TEM)", "setting": "MRSA USA300 cells", "result": "very little morphology changes"}]}
